From patent US7435540B2 (IDEXX Corporation, priority 2002, dated 2008)

What was measured:
PrP^Sc [1] = target: PrP^Sc (Mus musculus, UniProt P04925)
PrP^Sc [2] = tested on: PrP^Sc
PrP^C = PrP^C (Mesocricetus auratus, UniProt P04273)
bovine PrP^Sc = bovine PrP^Sc (Bos taurus, UniProt P10279)
mouse PrP^Sc = mouse PrP^Sc (Mus musculus, UniProt P04925)
Sequence of mouse PrP^Sc (P04925 23-230 limits assumed): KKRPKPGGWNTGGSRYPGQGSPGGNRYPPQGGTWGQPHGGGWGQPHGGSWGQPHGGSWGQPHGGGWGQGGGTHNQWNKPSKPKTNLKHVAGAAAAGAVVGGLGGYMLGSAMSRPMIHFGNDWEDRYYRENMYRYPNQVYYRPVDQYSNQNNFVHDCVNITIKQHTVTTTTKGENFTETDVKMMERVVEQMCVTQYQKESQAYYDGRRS

Sequence of PrP^Sc (Mus musculus, UniProt P04925) (P04925 23-230 limits assumed): as above
Sequence of bovine PrP^Sc (P10279 25-241 limits assumed): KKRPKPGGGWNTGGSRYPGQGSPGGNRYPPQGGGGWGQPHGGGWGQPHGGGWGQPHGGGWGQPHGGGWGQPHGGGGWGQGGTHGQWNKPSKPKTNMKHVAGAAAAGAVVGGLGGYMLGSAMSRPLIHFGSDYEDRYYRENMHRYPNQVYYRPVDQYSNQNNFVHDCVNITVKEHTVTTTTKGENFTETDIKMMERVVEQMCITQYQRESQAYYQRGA
Sequence of PrP^C (P04273 23-231 limits assumed): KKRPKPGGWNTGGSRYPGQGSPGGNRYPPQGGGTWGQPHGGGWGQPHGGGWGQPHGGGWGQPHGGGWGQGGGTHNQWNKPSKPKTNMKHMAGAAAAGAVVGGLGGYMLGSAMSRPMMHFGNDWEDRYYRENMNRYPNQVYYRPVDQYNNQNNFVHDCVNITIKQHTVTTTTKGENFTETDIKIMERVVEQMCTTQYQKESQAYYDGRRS

Sequence	precipitation of PrP^Sc from scrapie mouse brain lysate (PrP^Sc [1])	PrP^Sc selective binding / capture (PrP^Sc [2])	competition with YYRRYYRYY beads for capture of mouse PrP^Sc (mouse PrP^Sc)	other results
AYRRYARYA	not with YAR or AYR repeats			
YARYARYAR		shown to selectively bind PrP^Sc		
DRYYWYFDV		negative for PrP^Sc selective capture		
NHSTHNTGH		negative for PrP^Sc selective capture		
YRAARYRAY		shown to selectively bind PrP^Sc		
YYRRYYRYY	precipitation of PrP^Sc was observed			precipitation of normal isoform PrP^C from normal hamster brain lysate (PrP^C): not the normal isoform; capture of PrP^Sc from BSE-positive bovine brain lysate (bovine PrP^Sc): captures PrP^Sc
DEAYYKGWFAY		negative for PrP^Sc selective capture		
YYAAYYAYY	precipitation of PrP^Sc was observed		compete	
YSAASYASY	precipitation of PrP^Sc was observed		compete	
YARRAYRAY	not with YAR or AYR repeats		failed to compete	capture of PrP^Sc from BSE-positive bovine brain lysate (bovine PrP^Sc): failed to capture PrP^Sc
